Like-named read-outs stand apart in the source and are kept apart here.
What was measured:
[1] = system: Kornkäfer (sitophilus granarius L); experiment: whole plant or invertebrate; assay type: in vivo; conditions: for % Wirkung Substanz +Ripcord / % Wirkung Substanz +Talcord: 180 min; for mortality at 100 µg/mL: amine 0,1 mg/ml (as for Pyrethroid : Amin 1 : 10); for Wirksamkeit in % Substanz allein / mortality at 1000 µg/mL: amine 1 mg/ml in Aceton mixed 1 : 1 with Aceton, 2 ml per dish, 25 weevils, dead counted after 3 h; for Wirksamkeit in % Substanz +Ripcord: amine 1 mg/ml mixed 1 : 1 with Ripcord 0,01 mg/ml; for Wirksamkeit in % Substanz +Talcord: amine 1 mg/ml mixed 1 : 1 with Talcord 0,01 mg/ml; for mortality at 1000 µg/mL: read-out: Wirksamkeit in % Substanz allein
Summary of the method: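 Acetone solutions (2 ml) were dried as films in 15 cm Petri dishes and 25 grain weevils added per dish, with a filter inserted after 1 h. Dead beetles were counted at 3 h at 19–21 °C, and % mortality and the synergistic factor were derived.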

[2] = Acute oral toxicity, single oral application, 14 day LD50; set-up: species or system SPF-Wistar-Ratten; conditions: rat, in vivo, read-out: 14 Tage LD50
Description: Die erfindungsgemäßen Verbindungen haben nur eine geringe Toxizität. Es wurde die akute, orale Toxizität von Phenyl-N-piperidino-essigsäure-ethylester und 1-N-Undecyl-piperidin bestimmt. Die Tests wurden mit SPF-Wistar-Ratten durchgeführt und die Wirkstoffe einmal oral appliziert.

[3] = system: Drosophila melanogaster; experiment: whole plant or invertebrate; assay type: in vivo; conditions: for Wirksamkeit in % Substanz +Dimeti-lan: 1 ml 0,05%ige amine solution + 1 ml 0,0001%ige Dimetilan solution; for Wirksamkeit in % Substanz +Dimethoat: 1 ml 0,05%ige amine solution + 1 ml 0,005 %ige Dimethoat solution (Dimethoat : amine 1 : 10); for Faktor der Wirkungssteigerung bei Dime-methoat / Faktor der Wirkungssteigerung bei Dimi-tilan: calculated after subtracting the amine's own effect; for Faktor der Wirkungssteigerung bei Dimi-tilan: amine 0,05 % + Dimetilan 0,0001 %
Description: Die insektiziden Wirkungen von tertiären heterocyclischen Aminen und die synergistischen Eigenschaften mit dem Phosphorsäureester Dimethoat und dem Carbamat Dimetilan, getestet an Drosophila melanogaster.
Die Versuche wurden in Petrischalen von 10 cm Durchmesser ausgeführt. Es wurden zunächst die gerade noch wirksamen Konzentrationen von Dimethoat und Dimetilan bestimmt. Für Dimethoat wurde 0,005 % und für Dimetilan 0,0001 % als günstige Versuchskonzentration ermittelt. Die Aminkomponente wurde mit 1 ml 0,05%iger Lösung + 1 ml Aceton auf insektizide Wirkung getestet. Zur Bestimmung des Synergismus wurde 1 ml 0,05%ige Aminlösung + 1 ml 0,005.%ige Dimethoatlösung, bzw. + 1 ml 0,0001%ige Dimetilanlösung pro Petrischale eingesetzt. Alle Verdünnungen wurden mit Aceton als Lösungsmittel hergestellt.
In den Petrischalen wurden die Lösungen am Boden gut verteilt und 30 min lang antrocknen lassen. In jede Petrischale wurden 20 mit Kohlendioxid betäubte Drosophila eingezählt. Alle 5 min, insgesamt 12 mal, wurde die Anzahl der toten Drosophila ausgezählt und notiert. Die Zahlen wurden aufsummiert und im Verhältnis zur möglichen Zahl an toten Drosophila in % angegeben, wobei der Tot aller Drosophila innerhalb der ersten 5 min 100 % Wirkung entspricht. Jeder Versuch wurde mit 3 Wiederholungen durchgeführt. In Tabelle 1 sind die Mittelwerte der Ergebnisse zusammengestellt.
Zur Ermittlung des synergistischen Faktors wurden die Einzelwerte pro Zeiteinheit durch die für Dimethoat, bzw. Dimetilan für die jeweilige Zeiteinheit gefundenen Werte dividiert. Die Werte für jede Zeiteinheit wurden summiert und durch die Anzahl der Zeiteinheiten dividiert. Die Versuche wurden bei sonst stets gleichbleibenden Bedingungen bei Temperaturen von 20 - 22°C ausgeführt. Die Kontrollversuche zeigten bei Versuchsabschluß stets 0 % Mortalität. Hat die Substanz selbst eine insektizide Wirkung, so wurden die Wirkungsfaktoren für Dimethoat und Dimetilan nach Abzug des Substanzwertes berechnet und in der Tabelle aufgeführt.
Im Beispiel 1 war das Verhältnis von Insektizid und erfindungsgemäßem Amin 1 : 10 in den Gemischen mit Dimethoat. In der Tabelle 2 sind Verhältnisse von 1 : 1, 1 : 2 und 1 : 0,2 bei Versuchen mit Dimethoat aufgeführt, dabei wurde das Dimethoat immer in einer Konzentation von 0,005 % eingesetzt. Die Tabelle zeigt, daß auch bei diesen Verhältnissen noch eine gute synergistische Wirkung vorhanden ist, und es keineswegs einer großen überdosierung des Amins bedarf.

[4] = Pyrethroid : Amin 1 : 5, amine 0,05 mg/ml
[5] = Pyrethroid : Amin 1 : 10, amine 0,1 mg/ml
[6] = Sitophilus granarius, 3 h, read-out: % Wirkung Substanz allein
[7] = amine 1 mg/ml + Ripcord 0,01 mg/ml
[8] = 1 ml 0,05%ige amine solution + 1 ml Aceton per dish, 20 flies, dead counted every 5 min, 12 times, mean values
[9] = amine 0,05 % + Dimethoat 0,005 %
[10] = Drosophila melanogaster, 1 ml 0,05%ige amine solution + 1 ml Aceton per dish, 20 flies, dead counted every 5 min, 12 times, mean values, read-out: Wirksamkeit in % Substanz allein
[11] = amine 1 mg/ml + Talcord 0,01 mg/ml

Compound: CCCCCCCCCCCN1CCCCC1 [N-1-Undecyl-piperidin]
- % Wirkung Substanz +Ripcord [1, 4]: 90,8%
- % Wirkung Substanz +Talcord [1, 4]: 53,2%
- % Wirkung Substanz +Ripcord [1, 5]: 97,2%
- % Wirkung Substanz +Talcord [1, 5]: 60,0%
- mortality at 100 µg/mL [1, 6]: 0%
- mortality at 50 µg/mL ([1]; Sitophilus granarius, 3 h, amine 0,05 mg/ml (as for Pyrethroid : Amin 1 : 5), read-out: % Wirkung Substanz allein): 0%
- LD50 at 336 h ([2]; männliche Ratten): 593 mg/kg
- LD50 at 336 h ([2]; weibliche Ratten): 493 mg/kg

Compound: CCCCCCCCCCN1CCCCC1 [N-1-Decyl-piperidin]
- Synergistischer Faktor bei Ripcord ([1]; Pyrethroid : Amin 1 : 10): 3,09
- Synergistischer Faktor bei Talcord ([1]; Pyrethroid : Amin 1 : 10): 6,72
- % Wirkung Substanz +Ripcord [1, 5]: 97,2%
- % Wirkung Substanz +Talcord [1, 5]: 65,2%
- mortality at 100 µg/mL [1, 6]: 0%
- mortality at 0.005 % ([3]; Drosophila melanogaster, amine 0,005 %, read-out: Sub-stanz allein): 0%
- Substanz + Dime-thoat ([3]; amine 0,005 % + Dimethoat 0,005 %, Dimethoat : Amin 1 : 1): 45,4%
- Faktor der Wirkungs-steigerung ([3]; amine 0,005 %, Dimethoat : Amin 1 : 1): 5,28

Compound: C(CCCCN1CCOCC1)CCCN1CCOCC1 [1,8-N,N-Dimorpholino-octan]
- Synergistischer Faktor bei Ripcord [1, 7]: 1,56
- Wirksamkeit in % Substanz allein [1]: 44,0%
- Wirksamkeit in % Substanz +Ripcord ([1]; 3 h): 93,2%
- Wirksamkeit in % Substanz +Talcord ([1]; 3 h): 50,8%
- Wirksamkeit in % Substanz +Dimeti-lan [3]: 10,4%
- Wirksamkeit in % Substanz +Dimethoat [3]: 23,8%
- Wirksamkeit in % Substanz allein [3, 8]: 1,3%
- Faktor der Wirkungssteigerung bei Dime-methoat [3, 9]: 2,62
- Faktor der Wirkungssteigerung bei Dimi-tilan [3]: 3,64

Compound: CCOC(=O)C(c1ccccc1)N1CCCCC1 (stereo not shown) [Phenyl-N-piperidino-essigsäure-ethylester]
- Synergistischer Faktor bei Ripcord ([1]; Pyrethroid : Amin 1 : 10): 3,14
- Synergistischer Faktor bei Talcord ([1]; Pyrethroid : Amin 1 : 10): 5,24
- % Wirkung Substanz +Ripcord [1, 5]: 98,8%
- % Wirkung Substanz +Talcord [1, 5]: 50,8%
- mortality at 100 µg/mL [1, 6]: 0%
- LD50 at 336 h ([2]; männliche Ratten): 9750 mg/kg
- LD50 at 336 h ([2]; weibliche Ratten): 8170 mg/kg
- Wirksamkeit in % Substanz +Dimeti-lan [3]: 2,7%
- Wirksamkeit in % Substanz +Dimethoat [3]: 22,2%
- mortality at 0.05 % [3, 10]: 0%
- mortality at 0.01 % ([3]; Drosophila melanogaster, amine 0,01 %, read-out: Sub-stanz allein): 0%
- mortality at 0.05 % ([3]; Drosophila melanogaster, amine 0,05 %, read-out: Sub-stanz allein): 0%
- Substanz + Dime-thoat ([3]; amine 0,01 % + Dimethoat 0,005 %, Dimethoat : Amin 1 : 2): 59,2%
- Faktor der Wirkungs-steigerung ([3]; amine 0,01 %, Dimethoat : Amin 1 : 2): 6,88
- Substanz + Dime-thoat ([3]; amine 0,05 % + Dimethoat 0,005 %, Dimethoat : Amin 1 : 10): 22,1%
- Faktor der Wirkungssteigerung bei Dime-methoat [3, 9]: 2,57
- Faktor der Wirkungs-steigerung ([3]; amine 0,05 %, Dimethoat : Amin 1 : 10): 2,57

Compound: C=CC(C)(CCC=C(C)C)N1CC1 (stereo not shown) [N-1-Linalyl-aziridin]
- Synergistischer Faktor bei Ripcord [1, 7]: 2,99
- Synergistischer Faktor bei Talcord [1, 11]: 6,72
- Wirksamkeit in % Substanz allein [1]: 0%
- Wirksamkeit in % Substanz +Ripcord ([1]; 3 h): 97,2%
- Wirksamkeit in % Substanz +Talcord ([1]; 3 h): 65,2%
- Wirksamkeit in % Substanz +Dimeti-lan [3]: 0,42%
- Wirksamkeit in % Substanz +Dimethoat [3]: 21,7%
- Wirksamkeit in % Substanz allein [3, 8]: 0%
- Faktor der Wirkungssteigerung bei Dime-methoat [3, 9]: 2,67

Compound: CCCCCCCCCCN1CCCCCC1 [N-Decyl-hexamethylenimin]
- mortality at 1000 µg/mL ([1]; Sitophilus granarius): 69.2%
- Synergistischer Faktor bei Ripcord [1, 7]: 1,35
- Wirksamkeit in % Substanz +Ripcord ([1]; 3 h): 93,2%
- Wirksamkeit in % Substanz +Talcord ([1]; 3 h): 62,8%
- Wirksamkeit in % Substanz +Dimeti-lan [3]: 68,8%
- Wirksamkeit in % Substanz +Dimethoat [3]: 65,0%
- mortality at 0.05 % [3, 10]: 49.2%
- Faktor der Wirkungssteigerung bei Dime-methoat [3, 9]: 1,84
- Faktor der Wirkungssteigerung bei Dimi-tilan [3]: 7,84

Compound: C(=Cc1ccccc1)CN1CCCC1 [1-Cinnamyl-pyrrolidin]
- mortality at 1000 µg/mL ([1]; Sitophilus granarius): 0%
- Synergistischer Faktor bei Ripcord [1, 7]: 3,08
- Synergistischer Faktor bei Talcord [1, 11]: 3,17
- Wirksamkeit in % Substanz +Ripcord ([1]; 3 h): 97,2%
- Wirksamkeit in % Substanz +Talcord ([1]; 3 h): 30,8%
- Wirksamkeit in % Substanz +Dimeti-lan [3]: 55,4%
- Wirksamkeit in % Substanz +Dimethoat [3]: 5,8%
- mortality at 0.05 % [3, 10]: 0%
- Faktor der Wirkungssteigerung bei Dimi-tilan [3]: 22,2

Compound: C(=Cc1ccccc1)CN1CCCCC1 [N-Cinnamyl-piperidin]
- mortality at 1000 µg/mL ([1]; Sitophilus granarius): 0%
- Synergistischer Faktor bei Ripcord [1, 7]: 3,08
- Synergistischer Faktor bei Talcord [1, 11]: 7,01
- Wirksamkeit in % Substanz +Ripcord ([1]; 3 h): 97,2%
- Wirksamkeit in % Substanz +Talcord ([1]; 3 h): 68,0%
- Wirksamkeit in % Substanz +Dimeti-lan [3]: 82,5%
- Wirksamkeit in % Substanz +Dimethoat [3]: 77,1%
- mortality at 0.05 % [3, 10]: 66.3%
- Faktor der Wirkungssteigerung bei Dime-methoat [3, 9]: 1,25
- Faktor der Wirkungssteigerung bei Dimi-tilan [3]: 6,48

Compound: CCCCCC(CCCCC)N1CCCC1 [6-N-Pyrrolidino-undecan]
- Synergistischer Faktor bei Ripcord [1, 7]: 1,90
- Synergistischer Faktor bei Talcord [1, 11]: 6,06
- Wirksamkeit in % Substanz allein [1]: 0%
- Wirksamkeit in % Substanz +Ripcord ([1]; 3 h): 60,0%
- Wirksamkeit in % Substanz +Talcord ([1]; 3 h): 58,8%
- Wirksamkeit in % Substanz +Dimeti-lan [3]: 75,8%
- Wirksamkeit in % Substanz +Dimethoat [3]: 54,2%
- Wirksamkeit in % Substanz allein [3, 8]: 39,6%
- Faktor der Wirkungssteigerung bei Dime-methoat [3, 9]: 1,70
- Faktor der Wirkungssteigerung bei Dimi-tilan [3]: 14,48

Compound: CCCCCCCCCCN1CCCC1 [N-1-Decyl-pyrrolidin]
- mortality at 1000 µg/mL ([1]; Sitophilus granarius): 81.6%
- Synergistischer Faktor bei Talcord [1, 11]: 1,90
- Wirksamkeit in % Substanz +Ripcord ([1]; 3 h): 100,0%
- Wirksamkeit in % Substanz +Talcord ([1]; 3 h): 100,0%
- Wirksamkeit in % Substanz +Dimeti-lan [3]: 4,8%
- Wirksamkeit in % Substanz +Dimethoat [3]: 17,1%
- mortality at 0.05 % [3, 10]: 2.9%
- Faktor der Wirkungssteigerung bei Dime-methoat [3, 9]: 1,65

Compound: c1ccc(OCCCN2CCCCC2)cc1 [N-(1-Phenoxi-propyl-(3))-piperidin]
- Synergistischer Faktor bei Ripcord [1, 7]: 2,96
- Synergistischer Faktor bei Talcord [1, 11]: 3,01
- Wirksamkeit in % Substanz allein [1]: 0%
- Wirksamkeit in % Substanz +Ripcord ([1]; 3 h): 93,2%
- Wirksamkeit in % Substanz +Talcord ([1]; 3 h): 29,2%
- Wirksamkeit in % Substanz +Dimeti-lan [3]: 12,1%
- Wirksamkeit in % Substanz +Dimethoat [3]: 8,8%
- Wirksamkeit in % Substanz allein [3, 8]: 0%
- Faktor der Wirkungssteigerung bei Dimi-tilan [3]: 4,8

From patent EP0029617A1, “Use of tertiary heterocyclic amines as synergists in pesticides; derivatives of cycloamines” (priority 1979, dated 1981)
